Assay results published in PubChem BioAssay (NCI).
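Dose response: 5 concentrations. Exposure: 48 h. Format: 96-well plates. Endpoint: linear interpolation; highest concentration if not reached. TGI: total growth inhibition.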

Tests used:
Test in all cases: DTP human tumour cell line panel, 48 h
[1] = tested on: 786-0 renal
[2] = tested on: A498 renal
[3] = tested on: A549 NSCLC
[4] = tested on: ACHN renal
[5] = tested on: BT-549 breast
[6] = tested on: CAKI-1 renal
[7] = tested on: CCRF-CEM leukemia
[8] = tested on: COLO 205 colon
[9] = tested on: DU-145 prostate
[10] = tested on: EKVX NSCLC
[11] = tested on: HCC-2998 colon
[12] = tested on: HCT-116 colon
[13] = tested on: HCT-15 colon
[14] = tested on: HL-60(TB) leukemia
[15] = tested on: HOP-62 NSCLC
[16] = tested on: HOP-92 NSCLC
[17] = tested on: HS 578T breast
[18] = tested on: HT29 colon
[19] = tested on: IGROV1 ovarian
[20] = tested on: K-562 leukemia
[21] = tested on: KM12 colon
[22] = tested on: LOX IMVI melanoma
[23] = tested on: M14 melanoma
[24] = tested on: MALME-3M melanoma
[25] = tested on: MCF7 breast
[26] = tested on: MDA-MB-231 breast
[27] = tested on: MDA-MB-435
[28] = tested on: MDA-N
[29] = tested on: MOLT-4 leukemia
[30] = tested on: NCI-H226 lung
[31] = tested on: NCI-H23 lung
[32] = tested on: NCI-H460 lung
[33] = tested on: NCI-H522 lung
[34] = tested on: NCI/ADR-RES ovarian
[35] = tested on: OVCAR-3 ovarian
[36] = tested on: OVCAR-4 ovarian
[37] = tested on: OVCAR-5 ovarian
[38] = tested on: OVCAR-8 ovarian
[39] = tested on: PC-3 prostate
[40] = tested on: RPMI-8226 leukemia
[41] = tested on: RXF 393 renal
[42] = tested on: SF-268 CNS
[43] = tested on: SF-295 CNS
[44] = tested on: SF-539 CNS
[45] = tested on: SK-MEL-2 melanoma
[46] = tested on: SK-MEL-28 melanoma
[47] = tested on: SK-MEL-5 melanoma
[48] = tested on: SK-OV-3 ovarian
[49] = tested on: SN12C renal
[50] = tested on: SNB-19 CNS
[51] = tested on: SNB-75 CNS
[52] = tested on: SR leukemia
[53] = tested on: SW-620 colon
[54] = tested on: T-47D breast
[55] = tested on: TK-10 renal
[56] = tested on: U251 CNS
[57] = tested on: UACC-257 melanoma
[58] = tested on: UACC-62 melanoma
[59] = tested on: UO-31 renal
[60] = tested on: DLD-1 colon
[61] = tested on: DMS 114 small cell lung
[62] = tested on: DMS 273 small cell lung
[63] = tested on: HOP-18 NSCLC
[64] = tested on: KM20L2 colon
[65] = tested on: LXFL 529 NSCLC
[66] = tested on: M19-MEL melanoma
[67] = tested on: SNB-78 CNS
[68] = tested on: XF 498 CNS

Measured: TGI

NS(=O)(=O)c1ccc(NC(=S)NC(=O)Nc2ccc(Cl)c(Cl)c2)cc1
34.4 µM: [45]
70.7 µM: [7]
41.2 µM: [38]
> 85.3 µM: [40]
32.2 µM: [4]
28.3 µM: [21]
38.9 µM: [48]
31.7 µM: [3] | [5]
42 µM: [35]
40.1 µM: [6]
41.4 µM: [57]
43.8 µM: [30]
81.5 µM: [55]
24.5 µM: [50]
27.7 µM: [12]
29.8 µM: [13]
36.8 µM: [15]
33.5 µM: [14] | [24] | [26]
20.9 µM: [23]
35.9 µM: [53]
31 µM: [49]
48.6 µM: [16]
7.51 µM: [2]
31.3 µM: [18]
28.8 µM: [51]
> 69.8 µM: [32]
37.3 µM: [33]
29.6 µM: [28]
> 82.6 µM: [20]
37.8 µM: [56]
44.6 µM: [34]
33.3 µM: [54]
35.4 µM: [41]
30 µM: [39]
32.3 µM: [8] | [42]
43.5 µM: [46]
27.9 µM: [37]
35.7 µM: [27]
39.7 µM: [44]
44.1 µM: [36]
28.7 µM: [58]
59.3 µM: [17]
33.7 µM: [9] | [31]
19.1 µM: [22]
30.9 µM: [11]
30.2 µM: [25]
30.8 µM: [43]
51 µM: [10]
> 100 µM: [52]
31.1 µM: [1] | [47]
9.66 µM: [59]
39.2 µM: [19]
49.6 µM: [29]

O=C1C(Cl)C(c2cccc([N+](=O)[O-])c2)N1n1cnc2ccccc2c1=O (stereo not given)
not listed: [2] | [5] | [7] | [9] | [16] | [17] | [25] | [26] | [27] | [28] | [34] | [39] | [44] | [54] | [67] | [68]
> 100 µM: all other assays above

O=C(O)/C=C\C(=O)Nc1ccc2c(c1)-c1ccccc1C2
78.2 µM: [30]
not listed: [29] | [44] | [60] | [61] | [62] | [63] | [64] | [65] | [66] | [67] | [68]
> 100 µM: all other assays above

CCN(CC)CC(=O)NC1c2ccccc2Oc2ccccc21
not listed: [2] | [4] | [5] | [6] | [9] | [16] | [17] | [21] | [24] | [25] | [26] | [27] | [28] | [33] | [34] | [35] | [39] | [43] | [45] | [54] | [63]
> 100 µM: all other assays above
